Assay results published in patent US20220395472A1 (Dermavant Sciences GmbH, priority 2021, published 2022).

Tested on: adults with plaque psoriasis
Assay: Long-term open-label extension study (PSOARING 3): Physician Global Assessment (PGA), treatment episodes, treatment success, remittive effect
Type: in vivo, human
Method: This extension study consisted of up to 40 weeks of treatment and a 4 week, safety follow up period.
At the completion of the Week 12 visit of the DB, pivotal Phase 3 study, eligibility of the subjects opting to enroll in this extension study was confirmed. Study visits during the treatment period for all subjects occurred every 4 weeks (±3 days). A phone call was performed at Week 2 (Day 15). Unscheduled visits may have occurred, as needed. Subjects who withdrew from this study before Week 40 returned to the study center for an Early Termination visit. The total duration of this extension study participation was 44 weeks. Subjects in this study were treated as follows based on their PGA score from the Week 12 visit in the DB, pivotal Phase 3 study (Study DMVT 505 3001 or Study DMVT 505 3002).
The PGA was used to assess the primary efficacy endpoint in this study. The PGA is a clinical tool for assessing the current state/severity of a subject's psoriasis at a given time point. It is a static, 5 point, morphological assessment of overall disease severity, as determined by the Investigator, using the clinical characteristics of erythema, scaling, and plaque thickness/elevation as guidelines; higher PGA scores represent more severe disease (0=clear, 1=almost clear, 2=mild, 3=moderate, and 4=severe). The BSA affected was not considered in scoring of the PGA. Variations of the PGA are frequently used in clinical studies because it is a simple assessment, similar to those used in clinical practice. The PGA was performed first, prior to the % BSA, PASI, and LTS assessments.
Time to event parameters, such as the time from treatment success to subsequent worsening (PGA≥2) or duration of treatment episode, were summarized by the Kaplan Meier product limit method using OC.

[1] = Baseline PGA = 0, Tapinarof (Pivotal) group
[2] = Baseline PGA = 0, Vehicle (Pivotal) group

CC(C)c1c(O)cc(/C=C/c2ccccc2)cc1O [Tapinarof, 3,5-Dihydroxy-4-isopropyl-trans-stilbene]
Average Duration of Episodes, Mean (SD) (Baseline PGA = 0, Overall): 91.4 (66.93) days
Average Duration of Episodes, Median (Baseline PGA = 0, Overall): 63.0 days
Average Duration of Treatment Success, Mean (SD) (Baseline PGA = 0, Overall): 124.2 (87.66) days
Average Duration of Treatment Success, Median (Baseline PGA = 0, Overall): 98.0 days
Duration of 1st Episode, Mean (SD) (Baseline PGA = 0, Overall): 92.9 (67.74) days
Duration of 1st Episode, Median (Baseline PGA = 0, Overall): 65.0 days
Duration of 1st Success, Mean (SD) (Baseline PGA = 0, Overall): 125.1 (91.87) days
Duration of 1st Success, Median (Baseline PGA = 0, Overall): 112.0 days
Duration of 2nd Episode, Mean (SD) (Baseline PGA = 0, Overall): 44.1 (25.97) days
Duration of 2nd Episode, Median (Baseline PGA = 0, Overall): 42.0 days
Duration of 2nd Success, Mean (SD) (Baseline PGA = 0, Overall): 87.6 (67.05) days
Duration of 2nd Success, Median (Baseline PGA = 0, Overall): 71.0 days
Duration of 3rd Episode, Mean (SD) (Baseline PGA = 0, Overall): 61.0 (NE) days
Duration of 3rd Episode, Median (Baseline PGA = 0, Overall): 61.0 days
Duration of 3rd Success, Mean (SD) (Baseline PGA = 0, Overall): 33.0 (29.76) days
Duration of 3rd Success, Median (Baseline PGA = 0, Overall): 28.0 days
Duration of Last Episode, Mean (SD) (Baseline PGA = 0, Overall): 89.9 (68.95) days
Duration of Last Episode, Median (Baseline PGA = 0, Overall): 63.0 days
Duration of Last Success, Mean (SD) (Baseline PGA = 0, Overall): 121.6 (98.44) days
Duration of Last Success, Median (Baseline PGA = 0, Overall): 112.0 days
Total Duration of Treatment Episodes, Mean (SD) (Baseline PGA = 0, Overall): 109.2 (61.94) days
Total Duration of Treatment Episodes, Median (Baseline PGA = 0, Overall): 94.0 days
Total Duration of Treatment Success, Mean (SD) (Baseline PGA = 0, Overall): 167.9 (84.48) days
Total Duration of Treatment Success, Median (Baseline PGA = 0, Overall): 170.0 days
Average Duration of Episodes, Mean (SD) [1]: 90.2 (65.67) days
Average Duration of Episodes, Median [1]: 63.0 days
Average Duration of Treatment Success, Mean (SD) [1]: 119.7 (82.74) days
Average Duration of Treatment Success, Median [1]: 98.0 days
Duration of 1st Episode, Mean (SD) [1]: 91.7 (66.66) days
Duration of 1st Episode, Median [1]: 65.0 days
Duration of 1st Success, Mean (SD) [1]: 120.3 (87.83) days
Duration of 1st Success, Median [1]: 112.0 days
Duration of 2nd Episode, Mean (SD) [1]: 44.9 (26.43) days
Duration of 2nd Episode, Median [1]: 43.0 days
Duration of 2nd Success, Mean (SD) [1]: 89.1 (67.03) days
Duration of 2nd Success, Median [1]: 71.0 days
Duration of 3rd Episode, Mean (SD) [1]: 61.0 (NE) days
Duration of 3rd Episode, Median [1]: 61.0 days
Duration of 3rd Success, Mean (SD) [1]: 36.2 (29.31) days
Duration of 3rd Success, Median [1]: 28.5 days
Duration of Last Episode, Mean (SD) [1]: 88.8 (67.68) days
Duration of Last Episode, Median [1]: 63.0 days
Duration of Last Success, Mean (SD) [1]: 118.0 (93.58) days
Duration of Last Success, Median [1]: 112.0 days
Total Duration of Treatment Episodes, Median [1]: 94.0 days
Total Duration of Treatment Success, Mean (SD) [1]: 164.3 (82.24) days
Total Duration of Treatment Success, Median [1]: 168.0 days
Average Duration of Episodes, Mean (SD) [2]: 122.8 (124.80) days
Average Duration of Episodes, Median [2]: 122.8 days
Average Duration of Treatment Success, Mean (SD) [2]: 191.0 (136.91) days
Average Duration of Treatment Success, Median [2]: 280.0 days
Duration of 1st Episode, Mean (SD) [2]: 126.0 (120.21) days
Duration of 1st Episode, Median [2]: 126.0 days
Duration of 1st Success, Mean (SD) [2]: 195.2 (130.61) days
Duration of 1st Success, Median [2]: 280.0 days
Duration of 2nd Episode, Mean (SD) [2]: 28.0 (NE) days
Duration of 2nd Episode, Median [2]: 28.0 days
Duration of 2nd Success, Mean (SD) [2]: 63.5 (88.39) days
Duration of 2nd Success, Median [2]: 63.5 days
Duration of 3rd Success, Mean (SD) [2]: 1.0 (NE) days
Duration of 3rd Success, Median [2]: 1.0 days
Duration of Last Episode, Mean (SD) [2]: 119.5 (129.40) days
Duration of Last Episode, Median [2]: 119.5 days
Duration of Last Success, Mean (SD) [2]: 174.4 (158.72) days
Duration of Last Success, Median [2]: 280.0 days
Total Duration of Treatment Episodes, Mean (SD) [2]: 140.0 (100.41) days
Total Duration of Treatment Episodes, Median [2]: 140.0 days
Total Duration of Treatment Success, Mean (SD) [2]: 220.8 (109.21) days
Total Duration of Treatment Success, Median [2]: 280.0 days
Average Duration of Episodes, Mean (SD) (Baseline PGA = 1, Overall): 140.1 (95.01) days
Average Duration of Episodes, Median (Baseline PGA = 1, Overall): 112.0 days
Average Duration of Treatment Success, Median (Baseline PGA = 1, Overall): 98.0 days
Duration of 1st Episode, Mean (SD) (Baseline PGA = 1, Overall): 133.5 (100.06) days
Duration of 1st Episode, Median (Baseline PGA = 1, Overall): 87.0 days
Duration of 1st Success, Mean (SD) (Baseline PGA = 1, Overall): 107.2 (76.62) days
Duration of 1st Success, Median (Baseline PGA = 1, Overall): 90.0 days
Duration of 2nd Episode, Mean (SD) (Baseline PGA = 1, Overall): 98.4 (61.51) days
Duration of 2nd Episode, Median (Baseline PGA = 1, Overall): 85.0 days
Duration of 2nd Success, Mean (SD) (Baseline PGA = 1, Overall): 75.4 (59.40) days
Duration of 2nd Success, Median (Baseline PGA = 1, Overall): 56.0 days
Duration of 3rd Episode, Mean (SD) (Baseline PGA = 1, Overall): 54.9 (56.83) days
Duration of 3rd Episode, Median (Baseline PGA = 1, Overall): 28.0 days
